Reference: PMC10766610, “DCAF1-based PROTACs with activity against clinically validated targets overcoming intrinsic- and acquired-degrader resistance” (Nature Communications, 2024)
Where two headings read alike, the source gives them in different places.

Key:
DCAF1(WDR) [1] = target: T1, DCAF1(WDR) (Homo sapiens, UniProt Q9Y4B6, E1398S); test: SPR, surface immobilized DCAF1(WDR), binary compound binding; conditions: for Kd: binary, compound alone, spread in brackets, read-out: SPR KD
T1 construct: His6 (C); made in house; host or cells: Sf9 insect cells (baculovirus), co-expressed with BirA

DCAF1(WDR) [2] = target: T1, DCAF1(WDR); test: DCAF1 TR-FRET competition assay, standard binary format; assay type: binding; conditions: for IC50: binary
Protocol: Competition assay conditions consist of 20 µL total volume in white 384-well plates (Greiner), in 30 mM phosphate buffer pH 7.4 containing 140 mM NaCl, 0.01% Tween20, 1 mM TCEP and 1% final DMSO. Tested compounds at 14 different concentrations were pre-incubated at 22 °C for 30 min with a large excess of 10 µM human BTK (G389-S659) or 10 µM human BRD9-BD(130-250) in the cooperative assay or with buffer in standard binary assay. […] Samples were then incubated at 22 °C for 30 min before reading using a Tecan infinite M-1000 or PheraStar FSX (excitation 340 nm, emission 490 and 520 nm). DCAF1 protein was omitted in the negative control. IC50 fitting was carried out using an in-house developed software (Novartis Helios software application, unpublished, a publicly available alternative would be e.g., Graphpad Prism) using the methods described by Fomenko et al.[93] (regression algorithms for nonlinear dose-response curve fitting). Following normalization of activity values for the wells to % inhibition (% inhibition = [(high control-sample)/(high control-low control)] × 100). Data analysis could also be carried out using GraphPad Prism without prior normalization. The reported IC50 values are the average of at least two independent experiments.

BRD9 = target: T2, BRD9 (Homo sapiens, UniProt Q9H8M2); test: Rescue of DBr-1 mediated BRD9 degradation by co-treatment, BRD9-HiBiT HEK293 cells; assay type: cell-based; set-up: host or cells: HEK293/BRD9-HiBiT knock-in; clone and BRD9-HiBiT/CAS9/FF clone; conditions: (13) 1 µM, OICR8268 10 µM, BI-9564 10 µM
T2 sequence (Q9H8M2 1-597): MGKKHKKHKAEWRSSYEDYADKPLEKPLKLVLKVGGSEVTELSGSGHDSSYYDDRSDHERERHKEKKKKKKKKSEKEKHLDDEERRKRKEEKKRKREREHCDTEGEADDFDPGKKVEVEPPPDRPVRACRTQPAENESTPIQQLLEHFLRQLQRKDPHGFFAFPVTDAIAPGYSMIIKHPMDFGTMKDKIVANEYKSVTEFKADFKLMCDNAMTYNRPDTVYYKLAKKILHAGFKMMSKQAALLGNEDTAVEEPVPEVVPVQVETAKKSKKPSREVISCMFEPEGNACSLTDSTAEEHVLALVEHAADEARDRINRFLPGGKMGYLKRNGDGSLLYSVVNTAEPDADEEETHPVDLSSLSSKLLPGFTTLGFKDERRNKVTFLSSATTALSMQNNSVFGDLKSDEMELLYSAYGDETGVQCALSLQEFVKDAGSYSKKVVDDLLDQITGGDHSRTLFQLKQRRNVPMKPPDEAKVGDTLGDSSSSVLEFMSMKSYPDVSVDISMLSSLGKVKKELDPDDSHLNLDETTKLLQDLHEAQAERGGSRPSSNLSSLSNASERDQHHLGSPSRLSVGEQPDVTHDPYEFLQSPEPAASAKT
Protocol: Supplementary figure 4. Competition experiments with DBr-1 and DBr-1-N […]
a) BRD9-HiBiT signal detection of samples pretreated with either DMSO, 10µM OICR-8268, 1µM […]
Data represents average ± standard deviation from n=3 replicates. DC50 values and […]
maximal observed degradation are shown below. […]
b) Cell titer Glow assay of BRD9 HiBiT cells. Cells pretreated with either DMSO, 10µM OICR-8268, […]
Data represents average ± standard deviation from n=3 replicates.
Source data are provided as a Source Data file

[3] = Viability by FSC/SSC gate (flow cytometry) in TMD8 BTK-GFP/mCh cells; assay type: cell-based, human; set-up: Max dose w/ Gating Viability >25%: unit: µM; conditions: human, TMD8 BTK-GFP/mCh cells, TMD8 BTK-GFP/mCh, 24 h
Protocol: (§1) For flow cytometry measurements, 25,000 exponentially growing TMD8 BTK-GFP/mCh cells were plated in 100 μL of each well of a 96-well plate and grown for 24 h. Cells were then dosed with corresponding compounds and doses from 10 mM DMSO stock for 24 h, after which GFP and mCherry fluorescence was read with a Beckmann Coulter Cytoflex. For competition experiment, both compounds were added at the same time and dosed for 24 h. Cells were gated based on Forward & Side Scatter and selection for Single cells using SSC-A vs. SSC-H. Further, the population of viable cells was defined by the forward & side-scatter characteristics of DMSO-treated cells. […] Effects on viability were measured by the reduction of the percentage of cells included in this viable-population gate with increasing doses of compound tested. Degradation of BTK was calculated based on subtracting background (BG) fluorescence of parental TMD8 signal via (GFP-BG)/(mCherry-BG) of viable cells. Median ratios of three technical (different wells) replicates were used to calculate daily averages. Each compound dose–response was generated via three biological replicates (different days of experiment). Degradation curve parameters (DC50 & Abs. DC50 & max. Deg) were extracted using GraphPad Prism’s 4-parameter logistic curve fitting.
(§2) The viability window was determined by measuring the GI50 of viability based on the percentage of cells included in the viable gate and comparing it to the DC50 of degradation. The fold-change difference describing this window is [GI50 Viability / DC50 Degradation], where values above 1 indicate a positive (lower DC50 degradation than AC50 viability) window.

TMD8 BTK-GFP/mCh cells = test: as above; assay type: cell-based, human; set-up: Max dose w/ Gating Viability >25%: unit: µM; conditions: TMD8 BTK-GFP/mCh, 24 h
Protocol: as §1, §2

BTK = BTK (Homo sapiens, UniProt Q06187); test: BTK-GFP degradation by flow cytometry in TMD8 BTK-GFP/mCh cells; assay type: cell-based; set-up: performed with full-length BTK and endogenous DCAF1; expressed in transfected cells; host or cells: TMD8 cells, lentiviral, blasticidin-selected (TMD8 BTK-GFP/mCh); conditions: TMD8 BTK-GFP/mCh, 24 h; for DC50: read-out: DC50 BTK-Degradation
Protocol: The bicistronic pLenti6 BTK-GFP-chysel-mCHERRY expression vector was cloned as described[92] using Gateway cloning with a pENTR-BTK plasmid lacking a STOP codon. TMD8 cells were then infected with lentiviral particles from this vector as described above and stably transfected cells were selected with blasticidin at a concentration of 10 μg/mL referred to as TMD8 BTK-GFP/mCh cells.
For flow cytometry measurements, 25,000 exponentially growing TMD8 BTK-GFP/mCh cells were plated in 100 μL of each well of a 96-well plate and grown for 24 h. Cells were then dosed with corresponding compounds and doses from 10 mM DMSO stock for 24 h, after which GFP and mCherry fluorescence was read with a Beckmann Coulter Cytoflex. For competition experiment, both compounds were added at the same time and dosed for 24 h. Cells were gated based on Forward & Side Scatter and selection for Single cells using SSC-A vs. SSC-H. Further, the population of viable cells was defined by the forward & side-scatter characteristics of DMSO-treated cells. To confirm cells outside of this population as non-viable, cells were plated and treated for 24 h, washed with PBS and stained for 30 min with two markers of early (Annexin-V) and late (LIVE/DEAD) apoptosis. Effects on viability were measured by the reduction of the percentage of cells included in this viable-population gate with increasing doses of compound tested. Degradation of BTK was calculated based on subtracting background (BG) fluorescence of parental TMD8 signal via (GFP-BG)/(mCherry-BG) of viable cells. Median ratios of three technical (different wells) replicates were used to calculate daily averages. Each compound dose–response was generated via three biological replicates (different days of experiment). Degradation curve parameters (DC50 & Abs. DC50 & max. Deg) were extracted using GraphPad Prism’s 4-parameter logistic curve fitting.

BRD7 = target: T3, BRD7 (Homo sapiens, UniProt Q9NPI1); test: BRD7-HiBiT protein abundance luminescence assay in HEK293 cells; conditions: read-out: rel. DC50 (BRD7), 2 h
T3 sequence (Q9NPI1 1-651): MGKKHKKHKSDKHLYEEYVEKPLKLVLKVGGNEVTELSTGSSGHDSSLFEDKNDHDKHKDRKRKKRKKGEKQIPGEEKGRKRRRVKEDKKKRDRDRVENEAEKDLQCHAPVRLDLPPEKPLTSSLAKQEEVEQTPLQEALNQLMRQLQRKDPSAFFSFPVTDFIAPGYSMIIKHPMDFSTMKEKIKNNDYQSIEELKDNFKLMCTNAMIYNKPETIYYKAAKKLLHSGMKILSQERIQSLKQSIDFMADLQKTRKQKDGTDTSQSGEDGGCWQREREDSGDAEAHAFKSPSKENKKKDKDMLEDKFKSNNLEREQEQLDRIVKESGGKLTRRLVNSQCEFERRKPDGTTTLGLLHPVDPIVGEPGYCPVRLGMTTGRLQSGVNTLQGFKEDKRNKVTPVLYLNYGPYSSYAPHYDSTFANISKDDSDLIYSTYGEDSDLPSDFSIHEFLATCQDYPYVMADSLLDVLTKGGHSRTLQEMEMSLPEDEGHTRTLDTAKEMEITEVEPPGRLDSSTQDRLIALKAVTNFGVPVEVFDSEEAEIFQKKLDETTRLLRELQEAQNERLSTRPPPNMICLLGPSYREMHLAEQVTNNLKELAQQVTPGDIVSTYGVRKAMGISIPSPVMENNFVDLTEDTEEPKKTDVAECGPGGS
From the text: HEK293/BRD9-HiBiT pools (PROMEGA # CS3023120) and HEK293/BRD7-HiBiT pools (PROMEGA # CS3023124) were purchased from Promega. We performed clonal selection for HEK293/BRD9-HiBiT cell line using single-cell sorting and screening for HiBiT expression using Nano-Glo HiBiT Lytic Detection System (Promega # N3030). The HEK293/BRD9-HiBiT clone and HEK293/BRD7-HiBiT pool to perform standard HiBiT assays.

[4] = compound alone, spread in brackets, read-out: TR-FRET Q. IC50

Sequence of BTK (Q06187 2-659 limits assumed): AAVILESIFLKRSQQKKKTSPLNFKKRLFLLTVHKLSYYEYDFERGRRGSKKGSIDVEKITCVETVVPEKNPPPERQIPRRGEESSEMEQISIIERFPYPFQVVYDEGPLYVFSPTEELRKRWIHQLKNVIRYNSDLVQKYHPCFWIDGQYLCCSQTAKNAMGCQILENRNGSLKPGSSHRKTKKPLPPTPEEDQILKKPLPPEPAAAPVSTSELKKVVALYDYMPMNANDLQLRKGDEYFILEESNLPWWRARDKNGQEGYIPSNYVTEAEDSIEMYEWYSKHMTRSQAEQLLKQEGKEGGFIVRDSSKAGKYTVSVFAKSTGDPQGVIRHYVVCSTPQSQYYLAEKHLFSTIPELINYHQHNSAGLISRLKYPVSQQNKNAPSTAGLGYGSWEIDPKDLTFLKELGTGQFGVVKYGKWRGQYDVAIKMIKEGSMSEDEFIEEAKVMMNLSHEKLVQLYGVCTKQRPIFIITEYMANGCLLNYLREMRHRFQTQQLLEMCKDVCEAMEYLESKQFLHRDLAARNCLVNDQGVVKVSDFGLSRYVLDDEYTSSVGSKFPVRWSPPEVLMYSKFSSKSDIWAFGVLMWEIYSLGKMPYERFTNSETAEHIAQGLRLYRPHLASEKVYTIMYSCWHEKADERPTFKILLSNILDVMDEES
T1 sequence (Q9Y4B6 1073-1399 E1398S): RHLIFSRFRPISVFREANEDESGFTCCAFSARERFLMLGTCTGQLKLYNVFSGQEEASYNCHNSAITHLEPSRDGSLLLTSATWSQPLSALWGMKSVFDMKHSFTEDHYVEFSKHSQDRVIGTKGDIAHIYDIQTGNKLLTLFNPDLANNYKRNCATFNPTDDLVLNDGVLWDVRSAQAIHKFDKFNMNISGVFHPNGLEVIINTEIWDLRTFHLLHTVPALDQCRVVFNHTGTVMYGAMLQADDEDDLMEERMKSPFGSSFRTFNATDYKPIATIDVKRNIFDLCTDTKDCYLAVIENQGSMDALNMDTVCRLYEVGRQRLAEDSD

COc1cc(-c2cn(C)c(=O)c3cnccc23)c(OC)cc1CN1CCC(OCCCCCC(=O)N2CCN(c3ccc4c(NCCN(C)C)nc(C5(c6ccc(Cl)cc6)CCCCC5)nc4c3)CC2)CC1 [DBr-1-N]
relative reduction in affinity compared to DBr-1, SPR (DCAF1(WDR) [1]): 27 fold | relative reduction in affinity compared to DBr-1, TR-FRET (DCAF1(WDR) [2]): 41 fold | IC50 (DCAF1(WDR) [2]; read-out: IC50 in TR-FRET assays (response to reviewers)): 812 nM

NC(=O)C[C@H](NC(=O)c1c[nH]nc1-c1ccc(Cl)cc1F)c1ccc(F)c(Cl)c1 [OICR-8268]
effect of co-treatment on DBr-1 mediated BRD9 degradation (BRD9): did not affect the degradation efficacy of DBr-1

CC(=O)NCCOCCOCCOCCOCCOCCOCCC(=O)N1CCN(c2ccc3c(NCCN)nc(C4(c5ccc(Cl)cc5)CCCC4)nc3c2)CC1 [compound 15]
Kd (DCAF1(WDR) [1]): 20 nM | IC50 (DCAF1(WDR) [2]; [4]): 20 nM

C#CCOCC(=O)N1CCN(c2ccc3c(NCCN)nc(C4(c5ccc(Cl)cc5)CCCCC4)nc3c2)CC1 [compound 16]
Kd (DCAF1(WDR) [1]): 50 nM | IC50 (DCAF1(WDR) [2]; [4]): 10 nM

Cc1c(NC(=O)c2ccc(C(C)(C)O)cc2F)cc(F)cc1-c1ncnc2[nH]c(-c3ccc(CN4CCC5(CCNCC5)CC4)cc3)cc12 [compound 18, reference compound]
GI50 at 24 h ([3]; read-out: Abs GI50): 9540 nM | GI50 at 24 h ([3]; read-out: GI50): 7560 nM | Max dose w/ Gating Viability >25% (TMD8 BTK-GFP/mCh cells): 25 | DC50 (BTK): 7890 nM

Cc1c(NC(=O)N2CC(O)(CC(C)(C)C)C2)cc(F)cc1-c1ncnc2[nH]c(-c3cnn(CC(=O)N4CCC5(CCNCC5)CC4)c3)cc12 [compound 19]
GI50 at 24 h ([3]; read-out: GI50): > 25000 nM | Max dose w/ Gating Viability >25% (TMD8 BTK-GFP/mCh cells): 25 | max. BTK degradation (%) (BTK): 0% | DC50 (BTK): > 25000 nM

COc1cc(-c2cn(C)c(=O)c3cnccc23)c(OC)cc1CN(C)CC(=O)NCCOCCOCCNc1cccc2c1C(=O)N(C1CCC(=O)NC1=O)C2=O (centres unmarked) [dBRD9]
DC50 (BRD7): > 10000 nM
